From patent US6486096B1, “Herbicidal compositions with acylated aminophenylsulfonylureas” (priority 1998, dated 2002)
“And” between values parts separate entries of the source, which are not always exact repeats. Equal entries are not always repeated. Where two headings read alike, the source gives them in different places.

Columns and labels:
Type in all cases: in vivo
AGRRE = Agropyron repens = experiment: Herbicidal action, visual scoring; details: Table 6, post-emergence, scoring 3 weeks after application, g of A.S./ha by row: r6 30, r7 45, r8 60, r9 2.5, r10 5, r11 7.5, r12 30 + 2.5, r13 30 + 5
Protocol: (§1) The herbicidal activity of the active substances or active substance mixtures was scored visually with the aid of the treated parcels in comparison with untreated control parcels. Damage to and development of all above-ground parts of plants was recorded here. Scoring was carried out on a percentage scale (100% action=all plants died; 50% action=50% of the plants and green plant parts died; 0% action=no discernible action=like control parcels. The mean of the scoring values of 4 parcels in each case was taken.
(§2) Seeds or rhizome pieces of monocotyledonous and dicotyledonous weeds are placed in sandy loam soil in pots, covered with soil and grown in the greenhouse under good growth conditions (temperature, humidity, water supply). Three weeks after sowing, the test plants in the three-leaf stage are treated with the compositions according to the invention. The compositions according to the invention which are formulated as wettable powders or as emulsion concentrates are sprayed in various dosages on the green parts of the plants at an application rate of 600 to 800 l of water/ha (converted). After the test plants have remained in the greenhouse for about 3 to 4 weeks under optimal growth conditions, the effect of the products is scored visually by comparison with untreated controls. When applied post-emergence, too, the compositions according to the invention have a good herbicidal activity against a broad spectrum of economically important grass weeds and broad-leaved weeds.
(§3) Crop plants were raised outdoors under natural outdoor conditions on plots in which seeds or rhizome sections of typical harmful plants had been sown or the natural weed infestation was used. The treatment with the compositions according to the invention was carried out after the emergence of the harmful plants and the crop plants, as a rule in the 2 to 4-leaf stage; in some cases (as indicated) the application of individual active substances or active substance combinations was carried out pre-emergence (cf. Example 1) or as a sequence treatment, in some cases pre-emergence and/or post-emergence.
(§4) After the application, e.g. 2, 4, 6 and 8 weeks after application, the action of the preparations was scored visually in comparison with untreated controls (cf. score in Example 1). […] The crop plants, however, were not damaged or were only insignificantly damaged as a result of the treatment with the herbicidal compositions.

[1] = system: ECHCG = Echinochloa crus-galli; experiment: Herbicidal action, visual scoring; details: Table 12, post-emergence, scoring 3 weeks after application, g of A.S./ha by row: r6 120, r7 60, r8 30, r9 15, r10 1000, r11 500, r12 250, r13 30 + 500, r14 30 + 250, r15 15 + 250, r16 40, r17 20, r18 10, r19 30 + 20, r20 15 + 20, r21 30 + 10, r22 200, r23 100, r24 50, r25 30 + 100, r26 15 + 100, r27 30 + 50
Protocol: as §1, §2, §3, §4

[2] = system: ABUTH = Abutilon theophrasti; experiment: Herbicidal action, visual scoring; details: Table 2; scoring 3 weeks after application; (pe) pre-emergence, (po) post-emergence; g of A.S./ha by row: r6 35 (po), r7 1120 + 1120 (pe), r9 (1120 + 1120) (pe) + 35 (po)
Protocol: as §1, §2, §3, §4

Avena sterilis = experiment: Herbicidal action, visual scoring; details: Table 8; post-emergence; scoring 46 days after application; g of A.S./ha by row: r7 60, r8 270, r9 450, r10 60 + 270
Protocol: as §1, §2, §3, §4

Chrysanthemum coronarium = experiment: Herbicidal action, visual scoring; details: Table 8; post-emergence; scoring 46 days after application; g of A.S./ha by row: r7 60, r8 270, r9 450, r10 60 + 270
Protocol: as §1, §2, §3, §4

[3] = system: EPHHL = Euphorbia heterophylla; experiment: Herbicidal action, visual scoring; details: Table 13, post-emergence, scoring 3 weeks after application, g of A.S./ha by row: r7 30, r8 100, r9 150, r10 30 + 50
Protocol: as §1, §2, §3, §4

[4] = system: IPOPU = Ipomoea purpureum; experiment: Herbicidal action, visual scoring; details: Table 3, post-emergence, scoring 6 weeks after application, g of A.S./ha 15, 30, 45, 60, 300, 30 + 300
Protocol: as §1, §2, §3, §4

[5] = system: PHBPU = Pharbitis purpurea; experiment: Herbicidal action, visual scoring; details: Table 2; scoring 3 weeks after application; (pe) pre-emergence, (po) post-emergence; g of A.S./ha by row: r6 35 (po), r7 1120 + 1120 (pe), r9 (1120 + 1120) (pe) + 35 (po)
Protocol: as §1, §2, §3, §4

SOLNI = experiment: Herbicidal action, visual scoring; details: Table 10, post-emergence, scoring 3 weeks after application, g of A.S./ha by row: r7 120, r8 60, r9 30, r10 15, r11 12, r12 6, r13 3, r14 30 + 6, r16 15 + 6, r18 30 + 3
Protocol: as §1, §2, §3, §4

[6] = system: XANOR (Xanthium orientalis); experiment: Herbicidal action, visual scoring; details: Table 10, post-emergence, scoring 3 weeks after application, g of A.S./ha by row: r7 120, r8 60, r9 30, r10 15, r20 2000, r21 1000, r22 500, r23 30 + 1000, r25 15 + 1000, r27 30 + 500
Protocol: as §1, §2, §3, §4

[7] = system: Sethoxidime-resistant corn (SR); experiment: Damage on crop plants (selectivity), visual scoring; details: Table 22, post-emergence, scoring 4 weeks after application, g of A.S./ha by row: r7 50, r8 25, r9 12.5, r10 400, r11 200, r12 100, r13 12.5 + 100, r14 12.5 + 200, r15 25 + 100
Protocol: as §1, §3
(§5) After the application, e.g. 2, 4, 6 and 8 weeks after application, the action of the preparations was scored visually in comparison with untreated controls (cf. score in Example 1). […]

Brachiaria plantophylla = experiment: Herbicidal action, visual scoring; details: Table 24; post-emergence; scoring 6 weeks after application; g of A.S./ha by row: r6 45, r7 22.5, r8 60, r9 30, r11 22.5 + 30, r13 60, r14 30, r16 22.5 + 30, r18 450, r20 22.5 + 450
Protocol: as §1, §2, §3, §4

rice = experiment: Damage on crop plants (selectivity), visual scoring; details: Table 24; post-emergence; scoring 6 weeks after application; g of A.S./ha by row: r6 45, r7 22.5, r8 60, r9 30, r11 22.5 + 30, r13 60, r14 30, r16 22.5 + 30, r18 450, r20 22.5 + 450
Protocol: as §1, §3, §5

SIDSP = Sida spinosa = experiment: Herbicidal action, visual scoring; details: post-emergence
Protocol: as §1, §2, §3, §4

corn = details: post-emergence
Protocol: as §1, §3, §4

[8] = system: CHEAL = Chenopodium album; experiment: Herbicidal action, visual scoring; details: Table 4; post-emergence; scoring 40 days after application; g of A.S./ha: 30, 45, 60, 300, 45 + 300
Protocol: as §1, §2, §3, §4

[9] = system: POLCO = Polygonum convolvulus; experiment: Herbicidal action, visual scoring; details: Table 4; post-emergence; scoring 40 days after application; g of A.S./ha: 30, 45, 60, 300, 45 + 300
Protocol: as §1, with “taken. […]” for “taken.”
as §3, §4

[10] = Table 5, scoring 3 weeks after application, g of A.S./ha by row: r6 15, r7 30, r8 45, r9 60, r10 900, r11 30 + 900
[11] = Table 3, scoring 6 weeks after application, g of A.S./ha 15, 30, 45, 60, 300, 30 + 300

COc1nc(C)nc(NC(=O)NS(=O)(=O)c2cc(I)ccc2C(=O)O)n1 [(B2.4.4), iodosulfuron]
Herbicidal action against AGRRE (AGRRE = Agropyron repens; 2.5 g of A.S./ha): 0% | Herbicidal action against AGRRE (AGRRE = Agropyron repens; 5 g of A.S./ha): 10%

CC(C)N.O=C(O)CNCP(=O)(O)O [(B3.2.1), glyphosate-isopropylammonium]
Herbicidal action ECHCG ([1]; 250 g active substance per ha): 73% | Herbicidal action ECHCG ([1]; 500 g active substance per ha): 83% | Herbicidal action ECHCG ([1]; 1000 g active substance per ha): 98%

COc1cc(OC)nc(NC(=O)NS(=O)(=O)c2cc(NC=O)ccc2C(=O)N(C)C)n1 [(A1.1), N-[N-(4,6-dimethoxypyrimidin-2-yl)aminocarbonyl]-2-(dimethylaminocarbonyl)-5-(formylamino)benzenesulfonamide]
Herbicidal action ABUTH [2]: 88% | Herbicidal action against Avena sterilis (Avena sterilis): 83% | Herbicidal action against Chrysanthemum coronarium (Chrysanthemum coronarium): 20% | Herbicidal action EPHHL [3]: 70% | Herbicidal action IPOPU ([4]; 15 g of A.S./ha): 43% | Herbicidal action IPOPU ([4]; 30 g of A.S./ha): 67% | Herbicidal action IPOPU ([4]; 45 g of A.S./ha): 70% | Herbicidal action IPOPU ([4]; 60 g of A.S./ha): 83% | Herbicidal action PHBPU [5]: 45% | Herbicidal action SOLNI (SOLNI; 15 g active substance per ha): 65% | Herbicidal action SOLNI (SOLNI; 30 g active substance per ha): 83% | Herbicidal action SOLNI (SOLNI; 60 g active substance per ha): 90% | Herbicidal action SOLNI (SOLNI; 120 g active substance per ha): 90% | Herbicidal action XANOR ([6]; 15 g active substance per ha): 45% | Herbicidal action XANOR ([6]; 30 g active substance per ha): 55% | Herbicidal action XANOR ([6]; 120 g active substance per ha): 60%

CCC/C(=N\OCC)C1=C(O)CC(CC(C)SCC)CC1=O (stereo not shown) [(B1.6.33), sethoxydim]
Damage on corn (SR) [7]: 3% and 2% and 0%

COP(=S)(OC)SCC(=O)N(c1ccc(Cl)cc1)C(C)(C)C [(B1.6.11), anilofos]
Herbicidal action Brachiaria plantophylla (Brachiaria plantophylla): 35% | Damage on rice (rice): 8%

CS(=O)(=O)c1ccc(C(=O)C2C(=O)CCCC2=O)c([N+](=O)[O-])c1 [(B1.4.4), 2-(4-Mesyl-2-nitrobenzoyl)cyclohexane-1,3-dione]
Herbicidal action EPHHL ([3]; 100 g of active substance per ha): 63% | Herbicidal action EPHHL ([3]; 150 g of active substance per ha): 73%

CCCCCCCCSC(=O)Oc1cc(Cl)nnc1-c1ccccc1 [(B2.3.3), pyridate]
Herbicidal action against SIDSP (SIDSP = Sida spinosa; [10]): 10% | Damage on corn (corn; [10]): 0%

N#Cc1cc(Br)c(O)c(Br)c1 [(B2.2.1), bromoxynil]
Herbicidal action CHEAL [8]: 75% | Herbicidal action IPOPU [4]: 53% | Herbicidal action SIDSP (SIDSP = Sida spinosa; [11]): 70% | Herbicidal action POLC0 [9]: 45% | Damage on corn (corn; [11]): 0% | Damage on corn (corn; Table 4, scoring 40 days after application, g of A.S./ha: 30, 45, 60, 300, 45 + 300): 0%
